The values that follow come from patent US10815206B2, “RIP1 inhibitory compounds and methods for making and using the same” (priority 2018, dated 2020).

Like-named read-outs stand apart in the source and are kept apart here.

In assay [1] the test system is TNF-alpha induced hypothermia. Nature of the assay: Acute hypothermia mouse model (TNF-alpha/zVAD-FMK induced hypothermia). The note with it: mice, oral gavage. It is filed as in vivo. As to the method: In this example, an acute hypothermia mouse model assay was used to evaluate the ability of compounds disclosed herein to inhibit TNF-alpha induced hypothermia.
Female C57BL/6 mice are randomly grouped and weighed on Day −1. On the day of the study (Day 0), mice are administered vehicle or test article by oral gavage. Fifteen minutes after oral administration of test agents, each mouse is administered an intraperitoneal (IP) injection of solution containing recombinant human tumor necrosis factor alpha (TNF-α, 25.0 μg) and zVAD-FMK (200 μg). Body temperature is measured at 0 hours (before IP injections) and every hour via rectal probe temperature measuring device. Three (3) hours after IP injections of TNF-α and zVAD/FMK, mice are euthanized by CO2 asphyxiation and blood is collected via cardiac puncture. Serum and plasma are harvested for determination of cytokine and compound levels, respectively. Separate groups of mice (satellite mice) are included for the determination of compound levels in plasma at the time of administration of TNFa/zVAD-FMK.
(S)-5-benzyl-N-(5-methyl-4-oxo-2,3,4,5-tetrahydrobenzo[b][1,4]oxazepin-3-yl)-4H-1,2,4-triazole-3-carboxamide (WO 2014/125444), having a structure as illustrated below, was used as a comparative compound and was examined using a similar protocol as described by WO 2014/125444.

Assay [2] deals with TNF-alpha induced hypothermia. The note with it: dose of 30 mg/kg, according to WO 2014/125444; cited from earlier work.

On to `CN1C(=O)[C@@H](NC(=O)c2n[nH]c(Cc3ccccc3)n2)COc2ccc(C#CC(C)(C)O)cc21` [Compound I-30, (S)-5-benzyl-N-(7-(3-hydroxy-3-methylbut-1-yn-1l-yl)-5-methyl-4-oxo-2,3,4,5-tetrahydrobenzo[b][1,4]oxazepin-3-yl)-1H-1,2,4-triazole-3-carboxamide], for which the “inhibition of TNF-alpha induced hypothermia” value in assay [1] (dose of 5 mg/kg) was “greater than 85%”.

Regarding `CN1C(=O)[C@@H](NC(=O)c2nnc(Cc3ccccc3)[nH]2)COc2ccccc21` [comparative compound, (S)-5-benzyl-N-(5-methyl-4-oxo-2,3,4,5-tetrahydrobenzo[b][1,4]oxazepin-3-yl)-4H-1,2,4-triazole-3-carboxamide], the “inhibition of TNF-alpha induced hypothermia” value in assay [2] is listed as 93%; in assay [1] (30 mg/kg, in the inventors hands), 70%.
